Data taken from ChEMBL document CHEMBL1268858, “Cytotoxic Hexacyclic Triterpene Acids from Euscaphis japonica” (J Nat Prod, 2010).

Key:
[1] = Cytotoxicity against human fibroblast cells at 10 uM after 48 hrs; assay type: cell-based
[2] = system: NCI-H460; test: Cytotoxicity against human NCI-H460 cells at 10 uM after 48 hrs; assay type: functional
[3] = system: CCRF-CEM; test: Cytotoxicity against human CEM cells at 10 uM after 48 hrs; assay type: functional
[4] = system: MCF7; test: Cytotoxicity against human MCF7 cells at 10 uM after 48 hrs; assay type: functional
[5] = system: HT-29; test: Cytotoxicity against human HT-29 cells at 10 uM after 48 hrs; assay type: functional
[6] = system: NCI-H460; test: Cytotoxicity against human NCI-H460 cells after 48 hrs; assay type: functional, cell-based; conditions: NCI-H460, 48 h
[7] = system: MCF7; test: Cytotoxicity against human MCF7 cells after 48 hrs; assay type: functional, cell-based; conditions: MCF7, 48 h
[8] = system: HT-29; test: Cytotoxicity against human HT-29 cells after 48 hrs; assay type: functional, cell-based; conditions: HT-29, 48 h
[9] = system: CCRF-CEM; test: Cytotoxicity against human CEM cells after 48 hrs; assay type: functional, cell-based

**Q.** For C[C@@H]1CC[C@]2(C(=O)O)CC[C@]3(C)C(=CC[C@@H]4[C@@]5(C)C[C@H](O)[C@H](O)C(C)(C)[C@@H]5CC[C@]43C)[C@@H]2[C@]1(C)O, which Activity [1] is on record?
**A.** Its Activity is 107%.

**Q.** What about the Activity [2] of the same compound?
**A.** The Activity was 78%.

**Q.** And the Activity [3]?
**A.** The Activity was 73%.

**Q.** And the Activity [4]?
**A.** Its Activity is 70%.

**Q.** And the Activity [5]?
**A.** The Activity was 74%.

**Q.** Which Activity [1] does the source give for C[C@@H]1CC[C@]2(C(=O)O)CC[C@]3(C)C(=CC[C@@H]4[C@@]5(C)CC[C@H](O)[C@@](C)(C=O)[C@@H]5CC[C@]43C)[C@@H]2[C@]1(C)O here?
**A.** Its Activity is 99%.

**Q.** What about the Activity [2] of the same compound?
**A.** Its Activity is 103%.

**Q.** And the Activity [3]?
**A.** The Activity was 88%.

**Q.** And the Activity [4]?
**A.** Its Activity is 93%.

**Q.** And the Activity [5]?
**A.** Its Activity is 91%.

**Q.** With C[C@H]1[C@H](C)CC[C@]2(C(=O)O)CC[C@]3(C)C(=CC[C@@H]4[C@@]5(C)C[C@@H](O)[C@H](O)C(C)(C)[C@@H]5CC[C@]43C)[C@H]12 [COROSOLIC ACID] as the compound, how does the Activity [1] read?
**A.** The Activity was 109%.

**Q.** What about the IC50 [6] of the same compound?
**A.** The IC50 was greater than 10 µM.

**Q.** And the Activity [2]?
**A.** Its Activity is 89%.

**Q.** And the IC50 [7]?
**A.** The IC50 was greater than 10 µM.

**Q.** And the Activity [3]?
**A.** The Activity was 33%.

**Q.** And the Activity [4]?
**A.** Its Activity is 75%.

**Q.** And the Activity [5]?
**A.** Its Activity is 68%.

**Q.** What about the IC50 [8] of the same compound?
**A.** The IC50 was greater than 10 µM.

**Q.** And the IC50 [9]?
**A.** Its IC50 is 3.27 µM.

**Q.** Which IC50 [6] does the source give for COc1cccc2c1C(=O)c1c(O)c3c(c(O)c1C2=O)C[C@@](O)(C(=O)CO)C[C@@H]3O[C@H]1C[C@H](N)[C@H](O)[C@H](C)O1 [DOXORUBICIN] here?
**A.** Its IC50 is 6.06 µM.

**Q.** What about the IC50 [8] of the same compound?
**A.** The IC50 was 6.4 µM.

**Q.** What about the IC50 [9] of the same compound?
**A.** The IC50 was 3.14 µM.

**Q.** What does the source list for C[C@@H]1CC[C@]2(C(=O)O)CC[C@]34C[C@]3(C=C[C@@H]3[C@@]5(C)CC[C@H](O)C(C)(C)[C@@H]5CC[C@]34C)[C@@H]2[C@]1(C)O [EUSCAPHIC ACID A]?
**A.** Activity [1]: 100%; Activity [2]: 62%; Activity [3]: 83%; Activity [4]: 85%; Activity [5]: 87%

**Q.** What does the source list for C[C@@H]1CC[C@]2(C(=O)O)CC[C@]34C[C@]3(C=C[C@@H]3[C@@]5(C)CC[C@H](O)[C@@](C)(CO)[C@@H]5CC[C@]34C)[C@@H]2[C@]1(C)O [EUSCAPHIC ACID B]?
**A.** Activity [1]: 109%; Activity [2]: 99%; Activity [3]: 80%; Activity [4]: 84%; Activity [5]: 93%

**Q.** What does the source list for C[C@@H]1CC[C@]2(C(=O)O)CC[C@]34C[C@]3(C=C[C@@H]3[C@@]5(C)C[C@@H](O)[C@@H](O)C(C)(C)[C@@H]5CC[C@]34C)[C@@H]2[C@]1(C)O [EUSCAPHIC ACID C]?
**A.** Activity [1]: 119%; IC50 [6]: 2.54 µM; Activity [2]: 6%; IC50 [7]: 15.7 µM; Activity [3]: 19%; Activity [4]: 10%; Activity [5]: 1%; IC50 [8]: 14.3 µM; IC50 [9]: 65.3 µM

**Q.** For C[C@@H]1CC[C@]2(C(=O)O)CC[C@]34C[C@]3(C=C[C@@H]3[C@@]5(C)C[C@@H](O)[C@H](O)C(C)(C)[C@@H]5CC[C@]34C)[C@@H]2[C@]1(C)O [EUSCAPHIC ACID D], which Activity [1] is on record?
**A.** Its Activity is 111%.

**Q.** And the IC50 [6]?
**A.** The IC50 was 13.3 µM.

**Q.** And the Activity [2]?
**A.** The Activity was 24%.

**Q.** What about the IC50 [7] of the same compound?
**A.** The IC50 was 3.61 µM.

**Q.** What about the Activity [3] of the same compound?
**A.** The Activity was 55%.

**Q.** And the Activity [4]?
**A.** The Activity was 41%.

**Q.** And the Activity [5]?
**A.** Its Activity is 13%.

**Q.** What about the IC50 [8] of the same compound?
**A.** Its IC50 is 34.8 µM.

**Q.** And the IC50 [9]?
**A.** Its IC50 is 8.99 µM.

**Q.** Which Activity [1] does the source give for C[C@H]1[C@H](C)CC[C@]2(C(=O)O)CC[C@]34C[C@]3(C=C[C@@H]3[C@@]5(C)C[C@@H](O)[C@H](O)C(C)(C)[C@@H]5CC[C@]34C)[C@H]12 [EUSCAPHIC ACID E] here?
**A.** The Activity was 110%.

**Q.** And the Activity [2]?
**A.** Its Activity is 91%.

**Q.** And the Activity [3]?
**A.** Its Activity is 87%.

**Q.** And the Activity [4]?
**A.** The Activity was 90%.

**Q.** And the Activity [5]?
**A.** Its Activity is 86%.

**Q.** For C=C1[C@H](C)CC[C@]2(C(=O)O)CC[C@]34C[C@]3(C=C[C@@H]3[C@@]5(C)C[C@@H](O)[C@H](O)C(C)(C)[C@@H]5CC[C@]34C)[C@H]12 [EUSCAPHIC ACID F], which Activity [1] is on record?
**A.** Its Activity is 115%.

**Q.** What about the Activity [2] of the same compound?
**A.** The Activity was 81%.

**Q.** What about the Activity [3] of the same compound?
**A.** The Activity was 86%.

**Q.** What about the Activity [4] of the same compound?
**A.** The Activity was 76%.

**Q.** What about the Activity [5] of the same compound?
**A.** Its Activity is 87%.

**Q.** Which results are given for C[C@@H]1CC[C@]2(C(=O)O)CC[C@]3(C)C(=CC[C@@H]4[C@@]5(C)C[C@@H](O)[C@@H](O)C(C)(C)[C@@H]5CC[C@]43C)[C@@H]2[C@]1(C)O [EUSCAPHIC ACID]?
**A.** Activity [1]: 95%; Activity [2]: 104%; Activity [3]: 89%; Activity [4]: 85%; Activity [5]: 85%

**Q.** What does the source list for C[C@@H]1CC[C@]2(C(=O)O)CC[C@]3(C)C(=CC[C@@H]4[C@@]5(C)CC[C@H](O)C(C)(C)[C@@H]5CC[C@]43C)[C@@H]2[C@]1(C)O [POMOLIC ACID]?
**A.** Activity [1]: 93%; Activity [2]: 82%; Activity [3]: 92%; Activity [4]: 79%; Activity [5]: 91%

**Q.** Which results are given for C[C@@H]1CC[C@]2(C(=O)O)CC[C@]3(C)C(=CC[C@@H]4[C@@]5(C)CC[C@H](O)[C@@](C)(CO)[C@@H]5CC[C@]43C)[C@@H]2[C@]1(C)O [ROTUNDIC ACID]?
**A.** Activity [1]: 92%; Activity [2]: 85%; Activity [3]: 106%; Activity [4]: 78%; Activity [5]: 101%

**Q.** With C[C@@H]1CC[C@]2(C(=O)O)CC[C@]3(C)C(=CC[C@@H]4[C@@]5(C)CC[C@H](O)[C@](C)(CO)[C@@H]5CC[C@]43C)[C@@H]2[C@]1(C)O [ROTUNGENIC ACID] as the compound, how does the Activity [1] read?
**A.** Its Activity is 99%.

**Q.** What about the Activity [2] of the same compound?
**A.** Its Activity is 106%.

**Q.** And the Activity [3]?
**A.** The Activity was 97%.

**Q.** What about the Activity [4] of the same compound?
**A.** The Activity was 98%.

**Q.** And the Activity [5]?
**A.** Its Activity is 91%.

**Q.** With C[C@@H]1CC[C@]2(C(=O)O)CC[C@]3(C)C(=CC[C@@H]4[C@@]5(C)C[C@@H](O)[C@H](O)C(C)(C)[C@@H]5CC[C@]43C)[C@@H]2[C@]1(C)O [TOMENTIC ACID] as the compound, how does the Activity [1] read?
**A.** The Activity was 114%.

**Q.** And the Activity [2]?
**A.** Its Activity is 88%.

**Q.** What about the Activity [3] of the same compound?
**A.** Its Activity is 93%.

**Q.** And the Activity [4]?
**A.** The Activity was 85%.

**Q.** What about the Activity [5] of the same compound?
**A.** The Activity was 86%.
